ChEMBL document CHEMBL3272333, “Synthesis and biologic distribution of radioiodinated beta-adrenergic antagonists” (J Med Chem, 1978)

Columns and labels:
Parameters in all cases: dose 0.5-1 mg/kg, route intravenous
Kidney [1] = assay: Biodistribution in Sprague-Dawley rat kidney at 0.5 to 1 mg/kg, iv after 1 hr by gamma-well counting analysis; format: ADME, organism-based; conditions: in vivo
Spleen [2] = assay: Biodistribution in Sprague-Dawley rat spleen at 0.5 to 1 mg/kg, iv after 15 mins by gamma-well counting analysis; format: ADME, organism-based; conditions: in vivo, 0.25 h
Liver [3] = assay: Biodistribution in Sprague-Dawley rat liver at 0.5 to 1 mg/kg, iv after 15 mins by gamma-well counting analysis; format: ADME, organism-based; conditions: in vivo, 0.25 h
Thyroid gland [4] = assay: Biodistribution in Sprague-Dawley rat thyroid at 0.5 to 1 mg/kg, iv after 15 mins by gamma-well counting analysis; format: ADME, organism-based; conditions: in vivo, 0.25 h
Muscle tissue [5] = assay: Biodistribution in Sprague-Dawley rat muscle at 0.5 to 1 mg/kg, iv after 15 mins by gamma-well counting analysis; format: ADME, organism-based; conditions: in vivo, 0.25 h
Kidney [6] = assay: Biodistribution in Sprague-Dawley rat kidney assessed per organ at 0.5 to 1 mg/kg, iv after 15 mins by gamma-well counting analysis; format: ADME, organism-based; conditions: in vivo, 0.25 h
Heart [7] = assay: Biodistribution in Sprague-Dawley rat heart assessed per organ at 0.5 to 1 mg/kg, iv after 15 mins by gamma-well counting analysis; format: ADME, organism-based; conditions: in vivo, 0.25 h
Spleen [8] = assay: Biodistribution in Sprague-Dawley rat spleen assessed per organ at 0.5 to 1 mg/kg, iv after 1 hr by gamma-well counting analysis; format: ADME, organism-based; conditions: in vivo
Thyroid gland [9] = assay: Biodistribution in Sprague-Dawley rat thyroid assessed per organ at 0.5 to 1 mg/kg, iv after 15 mins by gamma-well counting analysis; format: ADME, organism-based; conditions: in vivo, 0.25 h
Muscle tissue [10] = assay: Biodistribution in Sprague-Dawley rat muscle assessed per organ at 0.5 to 1 mg/kg, iv after 1 hr by gamma-well counting analysis; format: ADME, organism-based; conditions: in vivo
Large intestine [11] = assay: Biodistribution in Sprague-Dawley rat large intestine assessed per organ at 0.5 to 1 mg/kg, iv after 1 hr by gamma-well counting analysis; format: ADME, organism-based; conditions: in vivo
Spleen [12] = assay: Biodistribution in Sprague-Dawley rat spleen assessed per organ at 0.5 to 1 mg/kg, iv after 15 mins by gamma-well counting analysis; format: ADME, organism-based; conditions: in vivo, 0.25 h
Lung [13] = assay: Biodistribution in Sprague-Dawley rat lung at 0.5 to 1 mg/kg, iv after 15 mins by gamma-well counting analysis; format: ADME, organism-based; conditions: in vivo, 0.25 h
Blood [14] = assay: Biodistribution in Sprague-Dawley rat blood assessed per organ at 0.5 to 1 mg/kg, iv after 1 hr by gamma-well counting analysis; format: ADME, organism-based; conditions: in vivo
Lung [15] = assay: Biodistribution in Sprague-Dawley rat lung at 0.5 to 1 mg/kg, iv after 1 hr by gamma-well counting analysis; format: ADME, organism-based; conditions: in vivo
Thyroid gland [16] = assay: Biodistribution in Sprague-Dawley rat thyroid at 0.5 to 1 mg/kg, iv after 1 hr by gamma-well counting analysis; format: ADME, organism-based; conditions: in vivo
Bone [17] = assay: Biodistribution in Sprague-Dawley rat bone assessed per organ at 0.5 to 1 mg/kg, iv after 1 hr by gamma-well counting analysis; format: ADME, organism-based, Bone element; conditions: in vivo
Heart [18] = assay: Biodistribution in Sprague-Dawley rat heart at 0.5 to 1 mg/kg, iv after 15 mins by gamma-well counting analysis; format: ADME, organism-based; conditions: in vivo, 0.25 h
Stomach [19] = assay: Biodistribution in Sprague-Dawley rat stomach assessed per organ at 0.5 to 1 mg/kg, iv after 15 mins by gamma-well counting analysis; format: ADME, organism-based; conditions: in vivo, 0.25 h
Heart [20] = assay: Biodistribution in Sprague-Dawley rat heart assessed per organ at 0.5 to 1 mg/kg, iv after 1 hr by gamma-well counting analysis; format: ADME, organism-based; conditions: in vivo
Bone [21] = assay: Biodistribution in Sprague-Dawley rat bone at 0.5 to 1 mg/kg, iv after 15 mins by gamma-well counting analysis; format: ADME, organism-based, Bone element; conditions: in vivo, 0.25 h
Small intestine [22] = assay: Biodistribution in Sprague-Dawley rat small intestine assessed per organ at 0.5 to 1 mg/kg, iv after 1 hr by gamma-well counting analysis; format: ADME, organism-based; conditions: in vivo
Liver [23] = assay: Biodistribution in Sprague-Dawley rat liver assessed per organ at 0.5 to 1 mg/kg, iv after 1 hr by gamma-well counting analysis; format: ADME, organism-based; conditions: in vivo
Kidney [24] = assay: Biodistribution in Sprague-Dawley rat kidney at 0.5 to 1 mg/kg, iv after 15 mins by gamma-well counting analysis; format: ADME, organism-based; conditions: in vivo, 0.25 h
Lung [25] = assay: Biodistribution in Sprague-Dawley rat lung assessed per organ at 0.5 to 1 mg/kg, iv after 15 mins by gamma-well counting analysis; format: ADME, organism-based; conditions: in vivo, 0.25 h
Blood [26] = assay: Biodistribution in Sprague-Dawley rat blood assessed per organ at 0.5 to 1 mg/kg, iv after 15 mins by gamma-well counting analysis; format: ADME, organism-based; conditions: in vivo, 0.25 h
Large intestine [27] = assay: Biodistribution in Sprague-Dawley rat large intestine assessed per organ at 0.5 to 1 mg/kg, iv after 15 mins by gamma-well counting analysis; format: ADME, organism-based; conditions: in vivo, 0.25 h
Muscle tissue [28] = assay: Biodistribution in Sprague-Dawley rat muscle at 0.5 to 1 mg/kg, iv after 1 hr by gamma-well counting analysis; format: ADME, organism-based; conditions: in vivo
Blood [29] = assay: Biodistribution in Sprague-Dawley rat blood at 0.5 to 1 mg/kg, iv after 1 hr by gamma-well counting analysis; format: ADME, organism-based; conditions: in vivo
Liver [30] = assay: Biodistribution in Sprague-Dawley rat liver assessed per organ at 0.5 to 1 mg/kg, iv after 15 mins by gamma-well counting analysis; format: ADME, organism-based; conditions: in vivo, 0.25 h
Spleen [31] = assay: Biodistribution in Sprague-Dawley rat spleen at 0.5 to 1 mg/kg, iv after 1 hr by gamma-well counting analysis; format: ADME, organism-based; conditions: in vivo
[32] = Biodistribution in Sprague-Dawley rat fat and fur assessed per organ at 0.5 to 1 mg/kg, iv after 1 hr by gamma-well counting analysis; format: ADME, organism-based, Adipose tissue; conditions: in vivo
Liver [33] = assay: Biodistribution in Sprague-Dawley rat liver at 0.5 to 1 mg/kg, iv after 1 hr by gamma-well counting analysis; format: ADME, organism-based; conditions: in vivo
Lung [34] = assay: Biodistribution in Sprague-Dawley rat lung assessed per organ at 0.5 to 1 mg/kg, iv after 1 hr by gamma-well counting analysis; format: ADME, organism-based; conditions: in vivo
Heart [35] = assay: Biodistribution in Sprague-Dawley rat heart at 0.5 to 1 mg/kg, iv after 1 hr by gamma-well counting analysis; format: ADME, organism-based; conditions: in vivo
Kidney [36] = assay: Biodistribution in Sprague-Dawley rat kidney assessed per organ at 0.5 to 1 mg/kg, iv after 1 hr by gamma-well counting analysis; format: ADME, organism-based; conditions: in vivo
Muscle tissue [37] = assay: Biodistribution in Sprague-Dawley rat muscle assessed per organ at 0.5 to 1 mg/kg, iv after 15 mins by gamma-well counting analysis; format: ADME, organism-based; conditions: in vivo, 0.25 h
Bone [38] = assay: Biodistribution in Sprague-Dawley rat bone at 0.5 to 1 mg/kg, iv after 1 hr by gamma-well counting analysis; format: ADME, organism-based, Bone element; conditions: in vivo
Bone [39] = assay: Biodistribution in Sprague-Dawley rat bone assessed per organ at 0.5 to 1 mg/kg, iv after 15 mins by gamma-well counting analysis; format: ADME, organism-based, Bone element; conditions: in vivo, 0.25 h
Small intestine [40] = assay: Biodistribution in Sprague-Dawley rat small intestine assessed per organ at 0.5 to 1 mg/kg, iv after 15 mins by gamma-well counting analysis; format: ADME, organism-based; conditions: in vivo, 0.25 h
Thyroid gland [41] = assay: Biodistribution in Sprague-Dawley rat thyroid assessed per organ at 0.5 to 1 mg/kg, iv after 1 hr by gamma-well counting analysis; format: ADME, organism-based; conditions: in vivo
Stomach [42] = assay: Biodistribution in Sprague-Dawley rat stomach assessed per organ at 0.5 to 1 mg/kg, iv after 1 hr by gamma-well counting analysis; format: ADME, organism-based; conditions: in vivo
Blood [43] = assay: Biodistribution in Sprague-Dawley rat blood at 0.5 to 1 mg/kg, iv after 15 mins by gamma-well counting analysis; format: ADME, organism-based; conditions: in vivo, 0.25 h
[44] = Biodistribution in Sprague-Dawley rat fat and fur assessed per organ at 0.5 to 1 mg/kg, iv after 15 mins by gamma-well counting analysis; format: ADME, organism-based, Adipose tissue; conditions: in vivo, 0.25 h

## CC(C)NCC(O)COc1ccc(NC(=O)c2cccc([125I])c2)cc1 (racemic)
Kidney [1]
  Drug uptake: 1.27 % ID/g
Spleen [2]
  Drug uptake: 1.33 % ID/g
Liver [3]
  Drug uptake: 1.76 % ID/g
Thyroid gland [4]
  Drug uptake: 4.73 % ID/g
Muscle tissue [5]
  Drug uptake: 0.2 % ID/g
Kidney [6]
  Drug uptake: 3.45 %ID
Heart [7]
  Drug uptake: 0.64 %ID
Spleen [8]
  Drug uptake: 0.6 %ID
Thyroid gland [9]
  Drug uptake: 0.1 %ID
Muscle tissue [10]
  Drug uptake: 15.96 %ID
Large intestine [11]
  Drug uptake: 0.94 %ID
Spleen [12]
  Drug uptake: 0.8 %ID
Lung [13]
  Drug uptake: 1.24 % ID/g
Blood [14]
  Drug uptake: 0.86 %ID
Lung [15]
  Drug uptake: 1.82 % ID/g
Thyroid gland [16]
  Drug uptake: 3.58 % ID/g
Bone [17]
  Drug uptake: 2.44 %ID
Heart [18]
  Drug uptake: 0.89 % ID/g
Stomach [19]
  Drug uptake: 0.71 %ID
Heart [20]
  Drug uptake: 0.35 %ID
Bone [21]
  Drug uptake: 0.21 % ID/g
Small intestine [22]
  Drug uptake: 5.49 %ID
Liver [23]
  Drug uptake: 15.97 %ID
Kidney [24]
  Drug uptake: 1.82 % ID/g
Lung [25]
  Drug uptake: 1.89 %ID
Blood [26]
  Drug uptake: 0.79 %ID
Large intestine [27]
  Drug uptake: 0.56 %ID
Muscle tissue [28]
  Drug uptake: 0.17 % ID/g
Blood [29]
  Drug uptake: 0.06 % ID/g
Liver [30]
  Drug uptake: 18.94 %ID
Spleen [31]
  Drug uptake: 1.14 % ID/g
[32]
  Drug uptake: 7.19 %ID
Liver [33]
  Drug uptake: 1.39 % ID/g
Lung [34]
  Drug uptake: 2.19 %ID
Heart [35]
  Drug uptake: 0.51 % ID/g
Kidney [36]
  Drug uptake: 2.3 %ID
Muscle tissue [37]
  Drug uptake: 18.27 %ID
Bone [38]
  Drug uptake: 0.18 % ID/g
Bone [39]
  Drug uptake: 2.93 %ID
Small intestine [40]
  Drug uptake: 2.45 %ID
Thyroid gland [41]
  Drug uptake: 0.07 %ID
Stomach [42]
  Drug uptake: 0.7 %ID
Blood [43]
  Drug uptake: 0.06 % ID/g
[44]
  Drug uptake: 5.87 %ID
